Assays:
Assay type in all cases: functional
Conditions in all cases: route intraperitoneal
Rattus norvegicus [1] = assay: Antiinflammatory activity against carrageenan-induced paw edema in Wister albino rat assessed as inhibition of edema at 50 mg/kg, ip administered 1 hr prior to carrageenan challenge measured after 4 hrs relative to control
Rattus norvegicus [2] = assay: Antiinflammatory activity against carrageenan-induced paw edema in Wister albino rat assessed as inhibition of edema at 50 mg/kg, ip administered 1 hr prior to carrageenan challenge measured after 3 hrs relative to control
Rattus norvegicus [3] = assay: Antiinflammatory activity against carrageenan-induced paw edema in Wister albino rat assessed as inhibition of edema at 50 mg/kg, ip administered 1 hr prior to carrageenan challenge measured after 1 hr relative to control
Rattus norvegicus [4] = assay: Antiinflammatory activity against carrageenan-induced paw edema in Wister albino rat assessed as inhibition of edema at 50 mg/kg, ip administered 1 hr prior to carrageenan challenge measured after 4 hrs relative to indomethacin
Rattus norvegicus [5] = assay: Antiinflammatory activity against carrageenan-induced paw edema in Wister albino rat assessed as inhibition of edema at 50 mg/kg, ip administered 1 hr prior to carrageenan challenge measured after 2 hrs relative to control
Rattus norvegicus [6] = assay: Antiinflammatory activity against carrageenan-induced paw edema in Wister albino rat assessed as inhibition of edema at 10 mg/kg, ip administered 1 hr prior to carrageenan challenge measured after 1 hr relative to control
Rattus norvegicus [7] = assay: Antiinflammatory activity against carrageenan-induced paw edema in Wister albino rat assessed as inhibition of edema at 10 mg/kg, ip administered 1 hr prior to carrageenan challenge measured after 2 hrs relative to control
Rattus norvegicus [8] = assay: Antiinflammatory activity against carrageenan-induced paw edema in Wister albino rat assessed as inhibition of edema at 10 mg/kg, ip administered 1 hr prior to carrageenan challenge measured after 4 hrs relative to control
Rattus norvegicus [9] = assay: Antiinflammatory activity against carrageenan-induced paw edema in Wister albino rat assessed as inhibition of edema at 10 mg/kg, ip administered 1 hr prior to carrageenan challenge measured after 3 hrs relative to control

SMILES	inhibition in vivo at 50 mg/kg (Rattus norvegicus [1])	inhibition in vivo at 50 mg/kg (Rattus norvegicus [2])	inhibition in vivo at 50 mg/kg (Rattus norvegicus [3])	activity relative to indomethacin (Rattus norvegicus [4])	inhibition in vivo at 50 mg/kg (Rattus norvegicus [5])	inhibition in vivo at 10 mg/kg (Rattus norvegicus [6])	inhibition in vivo at 10 mg/kg (Rattus norvegicus [7])	inhibition in vivo at 10 mg/kg (Rattus norvegicus [8])	inhibition in vivo at 10 mg/kg (Rattus norvegicus [9])
[3H]N1C(=O)[C@@]2(c3ccccc31)N(C)C[C@@H](c1ccc(C)cc1)[C@@]21Cc2ccccc2C1=O	17.1%	27.4%	56.4%	35%	23.8%	–	–	–	–
[3H]C([3H])([3H])N1C(=O)[C@@]2(c3ccccc31)N(C)C[C@@H](c1ccc(C)cc1)[C@@]21Cc2ccccc2C1=O	13.9%	6.4%	46.9%	29%	8%	–	–	–	–
[3H]N1C(=O)[C@@]2(c3ccccc31)N(C)C[C@@H](c1ccco1)[C@@]21Cc2ccccc2C1=O	33.5%	38.8%	48.8%	69%	53.6%	–	–	–	–
[3H]C([3H])([3H])N1C(=O)[C@@]2(c3ccccc31)N(C)C[C@@H](c1ccco1)[C@@]21Cc2ccccc2C1=O	8.2%	17.5%	50.1%	17%	33.1%	–	–	–	–
[3H]N1C(=O)[C@@]2(c3ccccc31)N(C)C[C@@H](c1ccccc1)[C@@]21Cc2ccccc2C1=O	39.3%	42.5%	56%	81%	40%	–	–	–	–
[3H]N1C(=O)[C@@]2(c3ccccc31)N(C)C[C@@H](c1ccc(F)cc1)[C@@]21Cc2ccccc2C1=O	21.8%	21.1%	40.6%	45%	21.2%	–	–	–	–
[3H]C([3H])([3H])N1C(=O)[C@@]2(c3ccccc31)N(C)C[C@@H](c1ccc(F)cc1)[C@@]21Cc2ccccc2C1=O	25.5%	26.9%	52.9%	53%	24.6%	–	–	–	–
COc1ccc2c(c1)c(CC(=O)O)c(C)n2C(=O)c1ccc(Cl)cc1 [INDOMETHACIN]	–	–	–	–	–	51%	45.6%	48.5%	48.3%

Reference: ChEMBL document CHEMBL1152855, “Regioselective synthesis of dispiro[1H-indene-2,3'-pyrrolidine-2',3''-[3H]indole]-1,2''(1''H)-diones of potential anti-tumor properties” (2009)
